# Measured values taken from PubChem BioAssay AID2060613 (Molecular Pharmacology Branch, DTP, NCI, 2025).
# “And” between values parts separate entries of the source, which are not always exact repeats. Equal entries are not always repeated.
# Test system: 233499-124-R-J3-PDC complex spheroid viability
# Assay: Anticancer human tumor 233499-124-R-J3-PDC patient-derived colon adenocarcinoma cell line growth inhibition [CLK]
# Conditions: for viability, T/C: stronger effect = lower value
# From the text: A high-throughput screen of multi-cell type tumor spheroids was designed to identify active combinations of […] and targeted small molecules. Complex spheroids include a stromal component modeled by human endothelial cells (HUVEC) and fibroblasts modeled by human mesenchymal stem cells (MSCs). The concentration ranges selected for each drug and investigational agent were based upon clinically achievable concentrations if the clinical Cmax of the agent was known.
# Compounds. The drugs and investigational agents: cirtuvivint (SM08502; NSC835563), CC-671 (NSC850746), vemurafenib (NSC761431), tapotoclax (NSC804041), sotorasib (NSC818433), adagrasib (NSC831453), MRTX-1133 (NSC836407), BAY2416964 (NSC825713), copanlisib (NSC816437), inavolisib (NSC800729), abemaciclib (NSC768073), osimertinib (NSC779217), entinostat (NSC756642), eltanexor (KPT-8602, NSC794443), venetoclax (NSC766270), ceralasertib (NSC777638), bortezomib (NSC756655), olaparib (NSC753686), talazoparib (NSC767125), alisertib (NSC759677), peposertib (NSC802822), gemcitabine (NSC613327), 5-fluorouracil (NSC19893), SN-38 (NSC673596), oxaliplatin (NSC266046), paclitaxel (NSC125973), and doxorubicin (NSC123127), were obtained from the National Cancer Institute (NCI) Developmental Therapeutics Program Chemical Repository. The FDA-approved anticancer drug set is available from the Developmental Therapeutics Program at https://dtp.cancer.gov/organization/dscb/obtaining/available plates.htm. […] The stock solutions were prepared in dimethyl sulfoxide (DMSO, Sigma-Aldrich, St. Louis, MO, cat. D2650), except for the platinum complexes which were prepared in saline (Quality Biological, Gaithersburg, MD, cat. 114-055-101), at 800-fold the tested concentration and stored at -70 degrees C prior to their use. All drugs and investigational agents were tested over a range starting from a high concentration at or near the clinical Cmax and decreasing in half-log increments. If the clinical Cmax for an agent had not been determined, the highest concentration tested was 10 microM.
# Cell Culture. All cells were maintained in an incubator at 37 degrees C and 5% CO2 with 95% humidity. The PDC lines were cultured according to standard operating procedures established by the NCI PDMR. Briefly, all PDCs were thawed and cultured in Matrigel-coated flasks prepared with a working solution of 1X Ham's F-12 nutrient mix, without supplementation (Invitrogen, Waltham, MA, cat. 11765054), 100 U/mL penicillin-streptomycin (Invitrogen, cat. 15140122), and 2.5% Matrigel (Corning Inc., Corning, NY, cat. 354248) for the first three passages. The 947758-054-R-J2-PDC line was cultured in 6B/Colon 1A media, which includes advanced DMEM/F-12 (Thermo Fisher Scientific, cat. 12634028), 10 mM HEPES (Thermo Fisher Scientific, cat. 15630080), 1X GlutaMAX supplement (Thermo Fisher Scientific, cat. 35050061), 0.1 mg/mL primocin (InvivoGen, cat. ant-pm-2), 10% defined fetal bovine serum, heat inactivated (HyClone Laboratories Inc., cat. SH30070.03HI), 1.25 mM N-Acetyl-L-cysteine (Sigma-Aldrich, cat. A9165), 10 mM nicotinamide (Sigma-Aldrich, cat. N0636), 1X B-27 supplement (Thermo Fisher Scientific, cat. 17504044), 1X N-2 supplement (Thermo Fisher Scientific, cat. 17502048), and 10 microM Y-27632 dihydrochloride (Tocris Bioscience, cat. 1254). The 876862-298-R-J1-PDC was cultured in 6E media, which includes all 6B/Colon 1A media components plus 50% L-WRN conditioned media (ATCC, cat. CRL-3276), 50 ng/mL recombinant human EGF recombinant protein (hEGF; Thermo Fisher Scientific, cat. PHG0311), 10 ng/mL recombinant human fibroblast growth factor 10 (hGFG-10; PeproTech, cat. 100-26), 1 ng/mL recombinant human fibroblast growth factor 2 (hFGF-2; PeproTech, cat. 100-18B), and 1 µM prostaglandin E2 (PGE2; Tocris, cat. 2296). The 227483-062-R1-J1-PDC line was cultured in Panc media, containing all 6E components except hFGF-2, with the addition of 500 nM SB-431542 (Selleckchem, cat. S1067) and 10 nM gastrin (Tocris, cat. 3006). […]
# 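Also: spheroids exposed to the drug combinations for seven days.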
# 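For viability, T/C in this document: percent viability relative to DMSO vehicle control wells taken as 100%.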
smiles,measurement,setting,value
CC(C)CC(NC(=O)C(Cc1ccccc1)NC(=O)c1cnccn1)B(O)O (stereo unspecified) + CNC(=O)c1ccc(Nc2nc(OC3CCCC3)c3c(-c4ccc5nc(C)oc5c4)c[nH]c3n2)c(OC)c1,IC50,"curve of first compound, second compound 0.0316 µM",5.39 nM
same,IC50,"curve of first compound, second compound 0.1 µM",4.71 nM
same,IC50,"curve of first compound, second compound 0.316 µM",2.27 nM
same,IC50,"curve of first compound, second compound 1 µM",2.07 nM
same,IC50,"curve of first compound, second compound 3.16 µM",1.51 nM
same,IC50,"curve of first compound, second compound 10 µM",1.97 nM
same,"viability, T/C","second compound 0.0316 µM, first compound 0.000949 µM",96.3%
same,"viability, T/C","second compound 0.0316 µM, first compound 0.003 µM",106%
same,"viability, T/C","second compound 0.0316 µM, first compound 0.00949 µM",0.33%
same,"viability, T/C","second compound 0.0316 µM, first compound 0.03 µM",0.21%
same,"viability, T/C","second compound 0.0316 µM, first compound 0.0949 µM",0.19%
same,"viability, T/C","second compound 0.0316 µM, first compound 0.3 µM",0.17%
same,"viability, T/C","second compound 0.1 µM, first compound 0.000949 µM",81.5%
same,"viability, T/C","second compound 0.1 µM, first compound 0.003 µM",82.5%
same,"viability, T/C","second compound 0.1 µM, first compound 0.00949 µM",0.57%
same,"viability, T/C","second compound 0.1 µM, first compound 0.03 µM",0.17%
same,"viability, T/C","second compound 0.1 µM, first compound 0.0949 µM",0.16%
same,"viability, T/C","second compound 0.1 µM, first compound 0.3 µM",0.16%
same,"viability, T/C","second compound 0.316 µM, first compound 0.000949 µM",69.5%
same,"viability, T/C","second compound 0.316 µM, first compound 0.003 µM",43.7%
same,"viability, T/C","second compound 0.316 µM, first compound 0.00949 µM",0.19%
same,"viability, T/C","second compound 0.316 µM, first compound 0.03 µM",0.16%
same,"viability, T/C","second compound 0.316 µM, first compound 0.0949 µM",0.14%
same,"viability, T/C","second compound 0.316 µM, first compound 0.3 µM",0.54%
same,"viability, T/C","second compound 1 µM, first compound 0.000949 µM",92.2%
same,"viability, T/C","second compound 1 µM, first compound 0.003 µM",30.1%
same,"viability, T/C","second compound 1 µM, first compound 0.00949 µM",0.18%
same,"viability, T/C","second compound 1 µM, first compound 0.03 µM",0.15%
same,"viability, T/C","second compound 1 µM, first compound 0.0949 µM",0.15%
same,"viability, T/C","second compound 1 µM, first compound 0.3 µM",0.15%
same,"viability, T/C","second compound 3.16 µM, first compound 0.000949 µM",71.7%
same,"viability, T/C","second compound 3.16 µM, first compound 0.003 µM",18.4%
same,"viability, T/C","second compound 3.16 µM, first compound 0.00949 µM",0.16%
same,"viability, T/C","second compound 3.16 µM, first compound 0.03 µM",0.16%
same,"viability, T/C","second compound 3.16 µM, first compound 0.0949 µM",0.16%
same,"viability, T/C","second compound 3.16 µM, first compound 0.3 µM",0.7%
same,"viability, T/C","second compound 10 µM, first compound 0.000949 µM",77%
same,"viability, T/C","second compound 10 µM, first compound 0.003 µM",34.5%
same,"viability, T/C","second compound 10 µM, first compound 0.00949 µM",0.2%
same,"viability, T/C","second compound 10 µM, first compound 0.03 µM",0.17%
same,"viability, T/C","second compound 10 µM, first compound 0.0949 µM",0.2%
same,"viability, T/C","second compound 10 µM, first compound 0.3 µM",0.66%
CNC(=O)c1ccc(Nc2nc(OC3CCCC3)c3c(-c4ccc5nc(C)oc5c4)c[nH]c3n2)c(OC)c1,"viability, T/C",compound 0.0316 µM,93.9% [middle of 12 runs]
same,"viability, T/C",compound 0.316 µM,74% [middle of 12 runs]
same,"viability, T/C",compound 3.16 µM,75.3% [middle of 12 runs]
same,"viability, T/C",compound 10 µM,72.6% [middle of 12 runs]
same,IC50,"compound alone, run of 08/01/2023",> 10000 nM
C#Cc1c(F)ccc2cc(O)cc(-c3ncc4c(N5CC6CCC(C5)N6)nc(OCC56CCCN5CC(F)C6)nc4c3F)c12 (stereo unspecified),"viability, T/C",compound 0.0316 µM,86.1% and 87.7%
same,"viability, T/C",compound 0.1 µM,102% and 104%
same,"viability, T/C",compound 0.316 µM,95.6% and 105%
same,"viability, T/C",compound 1 µM,92% and 87.8%
same,"viability, T/C",compound 3.16 µM,89.5% and 79%
same,"viability, T/C",compound 10 µM,76.6% and 78.5%
same,IC50,curve of compound,> 10000 nM
CC1COCCN1c1cc(C2(S(C)(=N)=O)CC2)nc(-c2ccnc3[nH]ccc23)n1 (stereo unspecified),"viability, T/C",compound 0.0316 µM,101% and 95.8%
same,"viability, T/C",compound 0.1 µM,101% and 91.5%
same,"viability, T/C",compound 0.316 µM,98.3% and 92.1%
same,"viability, T/C",compound 1 µM,101% and 74.8%
same,"viability, T/C",compound 3.16 µM,99.7% and 89.2%
same,"viability, T/C",compound 10 µM,81.4% and 53.9%
same,IC50,curve of compound,> 10000 nM
